Experimental data reported in ChEMBL document CHEMBL1932982, “Virtual ligand screening of α-glucosidase: Identification of a novel potent noncarbohydrate mimetic inhibitor” (Bioorg Med Chem Lett, 2012).
The source made the active and inactive calls. The rule behind the calls is not given here.

How the values were obtained:
[1] = Inhibition of Saccharomyces cerevisiae alpha-glucosidase using 4-nitrophenyl alpha-D-glucopyranoside as substrate preincubated for 120 mins
[2] = tested on: Saccharomyces cerevisiae; assay: Inhibition of Saccharomyces cerevisiae alpha-glucosidase using 4-nitrophenyl alpha-D-glucopyranoside as substrate
[3] = tested on: Saccharomyces cerevisiae; assay: Time dependent inhibition of Saccharomyces cerevisiae alpha-glucosidase using 4-nitrophenyl alpha-D-glucopyranoside as substrate
[4] = tested on: Saccharomyces cerevisiae; assay: Irreversible inhibition of Saccharomyces cerevisiae alpha-glucosidase using 4-nitrophenyl alpha-D-glucopyranoside as substrate at 300 uM after 30 mins

| SMILES | IC50 [1] | inhibition [2] | TDI [3] | inhibition [4] |
| --- | --- | --- | --- | --- |
| N#Cc1c(NC(=O)CC2SC(N)=NC2=O)sc2c1CCCCCC2 (racemic) [listing 1 of 2 here] | 2.47 µM | – | – | – |
| CC(C)(C)C1CCc2c(sc(NC(=O)CC3SC(N)=NC3=O)c2C#N)C1 (racemic) [listing 1 of 2 here] | 27.1 µM | – | – | – |
| CC(C)(C)C1CCc2c(sc(NC(=O)CC3SC(N)=NC3=O)c2C#N)C1 (racemic) [listing 2 of 2 here] | – | Active | Active | Active |
| N#Cc1c(NC(=O)CC2SC(N)=NC2=O)sc2c1CCCCCC2 (racemic) [listing 2 of 2 here] | – | Active | Active | Active |
| CC(C)(C)C1CCc2c(sc(NC(=O)CC3SC(N)=NC3=O)c2C#N)C1 (single isomer, unassigned; enantiomer 1) | – | inactive | – | – |
| N#Cc1c(NC(=O)CC2SC(N)=NC2=O)sc2c1CCCCCC2 (single isomer, unassigned; enantiomer 1) | – | inactive | – | – |
| CC(C)(C)C1CCc2c(sc(NC(=O)CC3SC(N)=NC3=O)c2C#N)C1 (single isomer, unassigned; enantiomer 2) | – | inactive | – | – |
| N#Cc1c(NC(=O)CC2SC(N)=NC2=O)sc2c1CCCCCC2 (single isomer, unassigned; enantiomer 2) | – | inactive | – | – |
